Values joined by “and” are separate entries in the source; they are usually repeats but may differ in a detail not shown here. Identical values can stand only once. One block for each molecule: values may come before it.
Assay: photoluminescence quantum yield (fraction); solvent given as SMILES
[1] = in O=P(c1ccccc1)(c1ccccc1)c1ccccc1Oc1ccccc1P(=O)(c1ccccc1)c1ccccc1
[2] = in c1cc(-c2cccc(-n3c4ccccc4c4ccccc43)c2)cc(-n2c3ccccc3c3ccccc32)c1

photoluminescence quantum yield (in CC(C)(C)O): 0.19
photoluminescence quantum yield (in CC(C)CO): 0.29
photoluminescence quantum yield (in CC(C)O): 0.24
photoluminescence quantum yield (in CCCCO): 0.32
photoluminescence quantum yield (in CCCO): 0.27
photoluminescence quantum yield (in CCO): 0.25
photoluminescence quantum yield (in CN(C)C=O): 0.02
photoluminescence quantum yield (in CNC=O): 0.1
photoluminescence quantum yield (in CO): 0.22
photoluminescence quantum yield (in NC=O): 0.43
photoluminescence quantum yield (in O): 0.11
SMILES: COCCOCCOCCOCCOc1ccc(OCCOCCOCCOCCOC)c(C=O)c1

photoluminescence quantum yield (in ClCCl): 0.0269
SMILES: C#Cc1ccc(-c2c3nc(c(-c4ccc(C#C)cc4)c4ccc([nH]4)c(-c4cc(C(C)(C)C)cc(C(C)(C)C)c4)c4cc(c(-c5cc(C(C)(C)C)cc(C(C)(C)C)c5)c5ccc2[nH]5)C=N4)C=C3)cc1

SMILES: COCCC1=Cc2nc1ccc1[nH]c(cc1CCOC)c1nc(c(OC)cc3[nH]c2cc3CCOC)C(CCOC)=C1
photoluminescence quantum yield (in Cc1ccccc1): 0.18

photoluminescence quantum yield (in CCCCCC): 0.74
SMILES: F[B-]1(F)n2c(ccc2-c2ccccc2)C(C(F)(F)F)=C2C=CC(c3ccccc3)=[N+]21

photoluminescence quantum yield (in C1CCCCC1): 0.31
photoluminescence quantum yield (in CCOC(C)=O): 0.195
photoluminescence quantum yield (in CN(C)C=O): 0.013
photoluminescence quantum yield (in CO): 0.002
photoluminescence quantum yield (in ClCCl): 0.24
SMILES: CCN(CC)c1ccc2c(c1)oc(=O)c1cc3c(-c4ccccc4)nn(-c4ccccc4)c3nc12

photoluminescence quantum yield (in CC#N): 0.0002
photoluminescence quantum yield (in ClCCl): 0.0003
SMILES: COC(=O)c1ccccc1C#Cc1ccccc1NC(C)=O

photoluminescence quantum yield (in ClC(Cl)Cl): 0.01
SMILES: N#Cc1c(C#N)c2cc(Cl)c(Cl)cc2c2cc(Cl)c(Cl)cc12

photoluminescence quantum yield (in C1COCCO1): 0.61
SMILES: CCC12C(=C3C(=C4c5ccc(-c6ccc(C(C)=O)s6)cc5S(=O)(=O)C41CC)C(F)(F)C(F)(F)C3(F)F)c1ccc(-c3ccc(C(C)=O)s3)cc1S2(=O)=O (stereo not given)

photoluminescence quantum yield (in ClCCl): 0.34
SMILES: COc1ccc(C2=[N+]3C(=Nc4c(-c5ccc6ccccc6c5)cc(-c5ccc(OC)cc5)n4[B-]3(F)F)C(c3ccc4ccccc4c3)=C2)cc1

photoluminescence quantum yield (in C1CCOC1): 0.54
photoluminescence quantum yield (in C1COCCO1): 0.48
photoluminescence quantum yield (in CC#N): 0.41
photoluminescence quantum yield (in CCO): 0.24
photoluminescence quantum yield (in ClCCl): 0.62
SMILES: CN(C)c1ccc(/C=C/c2ccc(-c3cc(-c4ccccn4)nc(-c4ccccn4)c3)cc2)cc1

photoluminescence quantum yield (in ClC(Cl)Cl): 0.52
SMILES: N#CC1=CC(Br)=CC(C#N)=P1(c1ccccc1)c1ccccc1

photoluminescence quantum yield (in CCO): 0.04
photoluminescence quantum yield (in ClCCl): 0.0001
SMILES: N#Cc1cnc(-c2c3ccccc3c(-c3ccccc3)c3ccccc23)nc1

photoluminescence quantum yield (in CCO): 0.0075
photoluminescence quantum yield (in ClCCl): 0.017
photoluminescence quantum yield (in O): 0.01
SMILES: Oc1c(-c2cccs2)cccc1-c1nc2ccccc2s1

SMILES: N#Cc1c(-n2c3ccccc3c3ccccc32)cc(N2c3ccccc3C(c3ccccc3)(c3ccccc3)c3ccccc32)cc1-n1c2ccccc2c2ccccc21
photoluminescence quantum yield (in Cc1ccccc1): 0.27

photoluminescence quantum yield (in C1CCOC1): 0.75
SMILES: CCCCCCCCCc1c2ccccc2cc2c1oc1c3oc4c5oc6cc7ccccc7cc6c5c5ccccc5c4c3c3ccccc3c21

photoluminescence quantum yield (in CCO): 0.54
SMILES: O=C(O)CCNc1cccc2ccccc12

photoluminescence quantum yield (in CC#N): 0.041
SMILES: COC(=O)[C@@]12N=N[C@@](C(=O)OC)(C3C4CCC(C4)C31)[C@@H]1CC12 (stereo not given in full)

photoluminescence quantum yield (in CN(C)C=O): 0.84
SMILES: O=C1c2ccc3c4ccc5c6c(ccc(c7ccc(c2c37)C(=O)N1c1ccc(Cl)cc1)c64)C(=O)N(c1ccc(Cl)cc1)C5=O

SMILES: Cc1cc(C)c(-c2nnc(-c3ccc(-n4c5ccccc5c5ccccc54)c(C)c3)o2)c(C)c1
photoluminescence quantum yield (in Cc1ccccc1): 0.44

photoluminescence quantum yield (in CO): 0.0013
photoluminescence quantum yield (in O): 0.0007
photoluminescence quantum yield (in OCCO): 0.0046
photoluminescence quantum yield (in [2H]O[2H]): 0.0011
SMILES: O=C(O)C1=C/C(=C/C=[N+]2/c3cc(O)c(C[C@@H]4O[C@H](CO)[C@@H](O)C(O)[C@H]4O)cc3C[C@H]2C(=O)O)C[C@@H](C(=O)O)N1 (stereo not given in full)

photoluminescence quantum yield (in ClCCl): 0.058
SMILES: C(S/C=C/c1ccc(/C=C/SC=C(c2ccccc2)c2ccccc2)cc1)=C(c1ccccc1)c1ccccc1

photoluminescence quantum yield (in C1CCCCC1): 0.02
photoluminescence quantum yield (in C1COCCO1): 0.031
photoluminescence quantum yield (in CC#N): 0.025
photoluminescence quantum yield (in CN(C)C=O): 0.064
photoluminescence quantum yield (in CO): 0.02
photoluminescence quantum yield (in O): 0.011
photoluminescence quantum yield (in OCC(O)CO): 0.632
photoluminescence quantum yield (in OCCO): 0.115
SMILES: O=C1NC(=O)/C(=C\c2ccccc2O)S1

SMILES: C1=[N+](c2ccccc2)[B-](c2ccccc2)(c2ccccc2)Oc2c1ccc1c3c(ccc21)C=[N+](c1ccccc1)[B-](c1ccccc1)(c1ccccc1)O3
photoluminescence quantum yield (in Cc1ccccc1): 0.7
photoluminescence quantum yield (in ClCCl): 0.76

photoluminescence quantum yield (in ClC(Cl)Cl): 0
SMILES: Cc1oc(C)c2c1C=C(C=O)CC(C=O)=C2

photoluminescence quantum yield (in ClCCl): 0.03
SMILES: CC(C)(C)NC(=O)c1cccc2ccc3c4ccccc4c4ccccc4c3c12

SMILES: CC1(C)c2cc(-n3c4ccccc4c4ccccc43)ccc2N(c2ccc(-c3cc(-c4ccccc4)nc(-c4ccccc4)n3)cc2)c2ccc(-n3c4ccccc4c4ccccc43)cc21
photoluminescence quantum yield [1]: 0.81

photoluminescence quantum yield (in ClC(Cl)Cl): 0.31
SMILES: CC1=CC(C)=[N+]2C1=C(C1=C3C(C)=CC(C)=[N+]3[B-](F)(F)n3c(C)cc(C)c31)c1c(C)cc(C)n1[B-]2(F)F

photoluminescence quantum yield (in C1CCOC1): 0.01
photoluminescence quantum yield (in CS(C)=O): 0.01
photoluminescence quantum yield (in ClC(Cl)Cl): 0.01
photoluminescence quantum yield (in ClCCl): 0.04
SMILES: COc1ccc(-c2nc(-c3ccccc3O)c(-c3ccccc3O)n2-c2ccc(C)cc2)cc1

photoluminescence quantum yield (in CS(C)=O): 0.08
SMILES: C(/C=C/Nc1ccccc1)=[NH+]c1ccccc1

photoluminescence quantum yield (in CCOC(C)=O): 0.56
SMILES: CCn1ncc2c3c(C#N)c4c5ccccc5n(C)c4nc3ccc21

photoluminescence quantum yield (in CCO): 0.44
SMILES: Cc1cc2cc3cc(C)c(C)cc3cc2cn1

photoluminescence quantum yield (in ClCCl): 0.9
SMILES: FC(F)(F)c1ccc(B2c3ccccc3Nc3ccccc32)c(C(F)(F)F)c1

SMILES: N#Cc1c(-n2c3ccccc3c3cc(Br)ccc32)c(-n2c3ccccc3c3cc(Br)ccc32)c(C#N)c(-n2c3ccccc3c3cc(Br)ccc32)c1-n1c2ccccc2c2cc(Br)ccc21
photoluminescence quantum yield (in Cc1ccccc1): 0.53

photoluminescence quantum yield (in ClCCl): 0.54
SMILES: N#Cc1ccc(C2=Cc3cc4ccccc4cc3P2(=O)c2ccccc2)cc1 (stereo not given)

photoluminescence quantum yield (in CCO): 0.11
photoluminescence quantum yield (in CO): 0.09
photoluminescence quantum yield (in CS(C)=O): 0.23
SMILES: CN1/C(=C/C=C(/C=C/C2=[N+](C)c3ccccc3C2(C)C)c2ccc(C(F)(F)F)cc2)C(C)(C)c2ccccc21

SMILES: N#Cc1cc(C#N)cc(-n2c3ccccc3c3cc(-c4ccc5c(c4)c4ccccc4n5-c4cc(C#N)cc(C#N)c4)ccc32)c1
photoluminescence quantum yield (in Cc1ccccc1): 0.5
photoluminescence quantum yield [1]: 0.58

photoluminescence quantum yield (in CO): 0.69
SMILES: CCN(C)c1ccc(C2=C3C(C)=CC(/C=C/c4ccc(OCCCN=[N+]=[N-])cc4)=[N+]3[B-](F)(F)n3c(C)cc(C)c32)cc1

photoluminescence quantum yield (in CO): 0.18
SMILES: Oc1ccc(-c2nc(-c3ccccc3)c(-c3ccccc3)[nH]2)cc1

photoluminescence quantum yield (in ClCCl): 0.08
SMILES: CC(C)(C)c1ccc2c(c1)c1cc(C(C)(C)C)ccc1n2-c1ccc(N(c2ccc(-c3ccc(-c4ccc(-c5ccc(-c6ccc(N(c7ccc(-n8c9ccc(C(C)(C)C)cc9c9cc(C(C)(C)C)ccc98)cc7)c7ccc(-n8c9ccc(C(C)(C)C)cc9c9cc(C(C)(C)C)ccc98)cc7)cc6)s5)c5nsnc45)s3)cc2)c2ccc(-n3c4ccc(C(C)(C)C)cc4c4cc(C(C)(C)C)ccc43)cc2)cc1

SMILES: Cc1ccc2c(c1)C(=O)c1ccncc1-2
photoluminescence quantum yield (in CC#N): 0.019
photoluminescence quantum yield (in CCCCCC): 0.0032
photoluminescence quantum yield (in CCOC(C)=O): 0.036
photoluminescence quantum yield (in Cc1ccccc1): 0.031
photoluminescence quantum yield (in ClCCl): 0.022

photoluminescence quantum yield (in C1CCCCC1): 0.5
photoluminescence quantum yield (in CC#N): 0.7
photoluminescence quantum yield (in CO): 0.054
photoluminescence quantum yield (in ClC(Cl)Cl): 0.9
SMILES: CC(=O)c1ccc(-c2nc3ccc(N(C)C)c(Cl)c3s2)cc1

photoluminescence quantum yield [2]: 0.98
SMILES: CC(C)c1cc(C(C)C)c(B2c3cc(-n4c5ccc(C(C)(C)C)cc5c5cc(C(C)(C)C)ccc54)ccc3N(c3ccccc3)c3ccc(-n4c5ccc(C(C)(C)C)cc5c5cc(C(C)(C)C)ccc54)cc32)c(C(C)C)c1

photoluminescence quantum yield (in CS(C)=O): 0.64
SMILES: Fc1ccccc1-c1nc2sc3ccccc3c2s1

SMILES: CN(C)c1ccc(-c2cc(=O)c3ccccc3o2)cc1
photoluminescence quantum yield (in C1CCCCC1): 0.007
photoluminescence quantum yield (in C1CCOC1): 1
photoluminescence quantum yield (in CC#N): 1 and 0.96
photoluminescence quantum yield (in CCOC(C)=O): 1
photoluminescence quantum yield (in CCOCC): 0.87
photoluminescence quantum yield (in CO): 0.095
photoluminescence quantum yield (in Cc1ccccc1): 0.76

SMILES: CC(C)(C)c1ccc2c(c1)c1cc(C(C)(C)C)ccc1n2-c1cc(C(=O)c2ccccc2)cc(-n2c3ccc(C(C)(C)C)cc3c3cc(C(C)(C)C)ccc32)c1
photoluminescence quantum yield (in Cc1ccccc1): 0.073
photoluminescence quantum yield [2]: 0.75

SMILES: CN(C)c1ccc(C#Cc2ccc(C=O)cc2)cc1
photoluminescence quantum yield (in C1CCCCC1): 0.363
photoluminescence quantum yield (in C1CCOC1): 0.131
photoluminescence quantum yield (in C1COCCO1): 0.254
photoluminescence quantum yield (in CC1CCCO1): 0.223
photoluminescence quantum yield (in CC#N): 0.012
photoluminescence quantum yield (in CC(C)=O): 0.047
photoluminescence quantum yield (in CC(C)CC(C)(C)C): 0.044
photoluminescence quantum yield (in CC(C)O): 0.017
photoluminescence quantum yield (in CCCCCCCCCCCCCCCC): 0.056
photoluminescence quantum yield (in CCCCCCCCCCCCCCCCCl): 0.093
photoluminescence quantum yield (in CCOC(C)=O): 0.174
photoluminescence quantum yield (in CCOCC): 0.201
photoluminescence quantum yield (in CN(C)C=O): 0.046
photoluminescence quantum yield (in CO): 0.006
photoluminescence quantum yield (in CS(C)=O): 0.037
photoluminescence quantum yield (in Cc1ccccc1): 0.337

SMILES: Cc1ccc(N2C(c3ccccc3N)=NC(c3ccccc3)C2c2ccccc2)cc1 (stereo not given)
photoluminescence quantum yield (in Cc1ccccc1): 0.009

SMILES: c1ccc(-c2nnc(-c3cc(-n4c5ccccc5c5ccccc54)c(-n4c5ccccc5c5ccccc54)cc3-c3nnc(-c4ccccc4)o3)o2)cc1
photoluminescence quantum yield (in Cc1ccccc1): 0.383

SMILES: N#Cc1ccc(-n2c3ccccc3c3c2c2ccccc2n3-c2ccccc2)cc1
photoluminescence quantum yield (in Cc1ccccc1): 0.143

photoluminescence quantum yield [2]: 0.82
SMILES: c1ccc(-c2nc(-c3ccccc3)nc(-c3ccc(-c4ccc5c(c4)C4(c6ccccc6-c6ccccc64)c4ccccc4N5c4ccccc4)cc3)n2)cc1

SMILES: Cc1cc(C)c(N(c2ccccc2)c2ccc(S(=O)(=O)c3ccc(S(=O)(=O)c4ccc(N(c5ccccc5)c5c(C)cc(C)cc5C)cc4)cc3)cc2)c(C)c1
photoluminescence quantum yield (in Cc1ccccc1): 0.79

photoluminescence quantum yield (in C1CCCCC1): 0.61
SMILES: B1C=Cc2ccc3ccccc3c2N1

— the Deep4Chem optical property database
